US20170354721A1, “WOUND HEALING COMPOUND” (priority 2016, published 2017)

Tests used:
[1] = tested on: all ranges of bacterial infection; conditions: in water or saline; cited from earlier work
[2] = tested on: ancef sensitive organisms; conditions: in the lab; cited from earlier work
[3] = tested on: ancef sensitive organisms; assay: Minimum bactericidal concentration (MBC) of ancef; assay type: cell-based
Procedure: In an operating room setting, the vancomycin is reconstituted at room temperature (˜25° C.). […] To insure the Minimal Inhibitory Concentration (MIC) for vancomycin is exceeded, the total amount of vancomycin added to the mixture ranges from 1 mg to 5000 mg with the preferred amount being 500 mg for a 10 ml syringe, 750 mg for a 15 ml syringe, and 1000 for a 20 ml syringe. People having skill in the art will recognize that the concentrations of vancomycin can be adjusted for different sized syringes. The reconstituted vancomycin is added to the thrombin-flowable agent mixture to form a wound healing compound (“compound”). The compound is applied directly to the target wound. The Minimum Inhibitory Concentration (MIC) is defined as the lowest concentration of antimicrobial that will inhibit the visible growth of a microorganism after an overnight incubation. Related to this is the minimum bactericidal concentration (MBC), which is the lowest concentration of antimicrobial agent that will prevent the growth of an organism after subculture on to antibiotic free media.
Depending on the infection agent, other antibiotics may be added to the mixture to form the wound healing compound. In the lab, ancef sensitive organisms are inhibited at an MIC ranging from 1-4 mcg/ml. However, ancef is bactericidal a four times the MIC. […]

SMILES | concentration at which most effective if all ranges of bacterial infection are to be inhibited [1] [µg/mL] | MIC [2] [µg/mL] | preferred concentration (the MBC), bactericidal at four times the MIC [3]
CN[C@H](CC(C)C)C(=O)N[C@H]1C(=O)N[C@@H](CC(N)=O)C(=O)N[C@H]2C(=O)N[C@H]3C(=O)N[C@H](C(=O)N[C@H](C(=O)O)c4cc(O)cc(O)c4-c4cc3ccc4O)[C@H](O)c3ccc(c(Cl)c3)Oc3cc2cc(c3O[C@@H]2O[C@H](CO)[C@@H](O)[C@H](O)[C@H]2O[C@H]2C[C@](C)(N)[C@H](O)[C@H](C)O2)Oc2ccc(cc2Cl)[C@H]1O [Vancomycin, vancomycin] | ≥ 16 | – | –
Cc1nnc(SCC2=C(C(=O)O)N3C(=O)[C@@H](NC(=O)Cn4cnnn4)[C@H]3SC2)s1 [ancef] | – | 1 to 4 | at least 16 mcg/ml
